The target in one test is T1, M2 receptor (Rattus norvegicus, UniProt P10980).
T1 sequence (P10980 1-466): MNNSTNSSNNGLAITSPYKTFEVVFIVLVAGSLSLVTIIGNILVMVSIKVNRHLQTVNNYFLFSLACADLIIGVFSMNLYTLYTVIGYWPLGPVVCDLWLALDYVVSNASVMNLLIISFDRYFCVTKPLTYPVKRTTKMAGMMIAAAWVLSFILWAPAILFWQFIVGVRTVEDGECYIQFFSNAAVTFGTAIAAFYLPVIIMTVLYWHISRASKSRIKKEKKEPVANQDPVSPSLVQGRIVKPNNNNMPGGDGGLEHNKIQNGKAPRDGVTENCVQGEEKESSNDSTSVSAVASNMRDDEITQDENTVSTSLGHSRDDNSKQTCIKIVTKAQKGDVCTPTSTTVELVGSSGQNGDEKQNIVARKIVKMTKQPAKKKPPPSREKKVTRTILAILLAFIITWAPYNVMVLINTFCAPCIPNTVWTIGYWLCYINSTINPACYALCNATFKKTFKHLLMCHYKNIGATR
The test can be described thus: biochemical. To be noted: read-out: [3H]QNB M2 IC50. The class given is binding.

For a further test, the target named is T2, M1 muscarinic receptor (Rattus norvegicus, UniProt P08482).
T2 construct: from tissue; host or cells: rat brain tissue
T2 sequence (P08482 1-460): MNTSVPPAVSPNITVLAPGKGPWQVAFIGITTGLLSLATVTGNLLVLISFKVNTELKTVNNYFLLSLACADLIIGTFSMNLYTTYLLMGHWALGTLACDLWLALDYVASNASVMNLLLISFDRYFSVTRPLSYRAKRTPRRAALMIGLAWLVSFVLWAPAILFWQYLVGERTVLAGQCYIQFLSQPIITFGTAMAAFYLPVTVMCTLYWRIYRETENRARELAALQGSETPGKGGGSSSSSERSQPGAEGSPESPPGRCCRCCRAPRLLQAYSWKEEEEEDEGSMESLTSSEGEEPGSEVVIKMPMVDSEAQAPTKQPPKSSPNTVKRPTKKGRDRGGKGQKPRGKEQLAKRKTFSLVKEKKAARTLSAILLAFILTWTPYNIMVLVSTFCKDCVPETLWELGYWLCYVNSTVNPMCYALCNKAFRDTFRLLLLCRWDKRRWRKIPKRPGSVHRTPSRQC
Kind of test: [3H]-Pirenzepine M1 receptor binding, rat brain tissue. Particulars: for IC50: [3H]pirenzepine, rat brain tissue; for M2/M1: ratio of M2 IC50 to M1 IC50.

As to `Cc1nnc(NCCCN(C)C)c2cc3ccccn3c12` [Example 3, N,N-Dimethyl-N'-(4-methylpyridazino[4,5-b]indolizin-1-yl)-1,3-propanediamine], the IC50 was 9500 nM on M2 receptor and 600 nM at M1 muscarinic receptor. Further, the M2/M1 at M1 muscarinic receptor is 24.
Taken in the same sequence, the figures for `Cc1nnc(NCCCN2CCN(C)CC2)c2cc3ccccn3c12` [Example 9, 4-Methyl-N-[4'-methyl(1-piperazinyl)propyl]pyridazino[4,5-b]indolizin-1-amine] were 2800 nM, 150 nM and 19.
In the case of `Cc1nnc(N2CCN(C)CC2)c2cc3ccccn3c12` [Example 7, 4-Methyl-1-(4'-methylpiperazinyl)pyridazino[4,5-b]indolizine], the IC50 on M2 receptor was 29000 nM. In addition, on M1 muscarinic receptor, the IC50 turned out to be 1000 nM and the M2/M1 was found to be 29.
Turning to `Cc1nnc(NCCN(C)C)c2cc3ccccn3c12` [Example 2], the IC50 at M2 receptor was 12000 nM. For the same molecule, on M1 muscarinic receptor, the IC50 was found to be 660 nM and the M2/M1 was 18.
`Cc1nnc(NCCN2CCOCC2)c2cc3ccccn3c12` [Example 4, N-[2-(4-Morpholinyl)ethyl]-4-methylpyridazino[4,5-b]indolizin-1-amine]: the IC50 at M2 receptor stood at 19000 nM. For the same molecule, at M1 muscarinic receptor, the half-maximal inhibitory concentration (IC50) stood at 2450 nM and the M2/M1 was determined as 8.
Taken in the same sequence, the figures for `CCN1CCCC1CNc1nnc(C)c2c1cc1ccccn12` (stereo not drawn) [Example 6, N-[(1-Ethyl-2-pyrrolidinyl)methyl]-4-methylpyridazino[4,5-b]-indolizin-1-amine] were 6200 nM, 260 nM and 24.
Taken in the same sequence, the figures for `Cc1nnc(NCCCN2CCOCC2)c2cc3ccccn3c12` [Example 5, N-[3-(4-Morpholinyl)propyl]-4-methylpyridazino[4,5-b]indolizin-1-amine] were 12000 nM, 270 nM and 44.
Taken in the same sequence, the figures for `Cc1nnc(NCCCN2CCCCC2)c2cc3ccccn3c12` [Example 8, 4-Methyl-N-[3-(1-piperidinyl)propyl]pyridazino[4,5-b]indolizin-1-amine] were 1400 nM, 110 nM and 13.
In the case of `Cc1nnc(NCCCCN2CCN(C)CC2)c2cc3ccccn3c12` [Example 10, 4-Methyl-N-[4'-methyl(1-piperazinyl)butyl]pyridazino[4,5-b]indolizin-1-amine], the 50% inhibitory concentration (IC50) on M2 receptor was 3500 nM. Besides, on M1 muscarinic receptor, the IC50 stood at 140 nM and the M2/M1 was found to be 25.
